The term IC50 denotes the concentration that gives 50% inhibition.

Experimental findings from patent US20080299140A1, “Immunogenic Composition and Peptide Sequences for Prevention and Treatment of an Hsv Condition” (priority 2002, published 2008) are described below.

Test [1] addresses T1, DR4=HLA-DR(α1*0101,α1*0401) (Homo sapiens, UniProt P01903+P01911, A100K/A169T/F76Y/I96L/K127E/L162R/M171V/N62H/P40V/Q125Y/R42H/S133A/S149N/S66Y/V115G/V209L/W38E).
T1 construct: endogenous in cells; host or cells: BOLETH (EBV homozygous B cell line)
As to the kind of experiment: biochemical. The test is classed as binding.

Test [2] deals with T2, DR7=HLA-DR(α1*0101,α1*0701) (Homo sapiens, UniProt P01903+P01911, A100R/A102G/A103Q/D57E/D86V/E43K/F76Y/K127E/L162R/M171V/P40G/Q125H/Q99D/R33Q/R42Y/R54Q/S133A/S66F/T210M/V115G/Y107V/Y59L/Y89S).
T2 construct: endogenous in cells; host or cells: EBV homozygous human B cell line
Put plainly: HLA-DR specific binding assay, DR7.

Test [3] has as its target T3, DR11=HLA-DR(α1*0101,α1*1101) (Homo sapiens, UniProt P01903+P01911, A100R/A169T/A87E/I96F/K41T/L162R/M171V/P40S/Q125H/Q178H/Q39Y/Q99D/R42S/S66Y/T262R/V115G/W38E).
T3 construct: endogenous in cells; host or cells: SWEIG (EBV homozygous B cell line)
As to the kind of experiment: biochemical. The test is classed as binding.

The target in test [4] is T4, DR15=HLA-DR(α1*0101,α1*1501) (Homo sapiens, UniProt P01903+P01911).
T4 construct: endogenous in cells; host or cells: EBV homozygous human B cell line
Put plainly: HLA-DR specific binding assay, DR15.

Test [5] concerns the target T5, DRB5=HLA-DR(α1*0101,α5*0101) (Homo sapiens, UniProt P01903+Q30154).
T5 construct: endogenous in cells; host or cells: EBV homozygous human B cell line
Put plainly: biochemical. The test is classed as binding. Particulars: Table V; […]; read-out: IC50 DRB5.

Test [6] deals with T6, DP401=HLA-DP(α1*0101,α1*0401) (Homo sapiens, UniProt P04440+P20036).
T6 sequence (P20036 32-260 limits assumed): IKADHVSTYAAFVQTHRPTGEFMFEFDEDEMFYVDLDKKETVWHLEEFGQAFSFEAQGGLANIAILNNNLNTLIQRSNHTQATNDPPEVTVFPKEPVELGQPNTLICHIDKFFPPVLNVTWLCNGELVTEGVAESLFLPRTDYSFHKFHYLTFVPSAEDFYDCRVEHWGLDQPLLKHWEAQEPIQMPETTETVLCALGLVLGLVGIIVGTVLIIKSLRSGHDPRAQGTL
T6 sequence (P04440 30-258): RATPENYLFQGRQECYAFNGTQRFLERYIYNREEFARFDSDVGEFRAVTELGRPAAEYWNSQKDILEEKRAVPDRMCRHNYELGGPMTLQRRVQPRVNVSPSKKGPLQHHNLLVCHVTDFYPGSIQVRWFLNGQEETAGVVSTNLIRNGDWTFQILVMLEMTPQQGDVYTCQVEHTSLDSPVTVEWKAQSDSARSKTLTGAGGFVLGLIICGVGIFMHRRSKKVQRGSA
Put plainly: biochemical. In kind it is binding.

Test [7] addresses T7, DP402 DP (α1*0101, α1*0402) (Homo sapiens, UniProt P04440+P20036, A65V/A84D/A85E/L207M).
T7 sequence (P20036 29-260): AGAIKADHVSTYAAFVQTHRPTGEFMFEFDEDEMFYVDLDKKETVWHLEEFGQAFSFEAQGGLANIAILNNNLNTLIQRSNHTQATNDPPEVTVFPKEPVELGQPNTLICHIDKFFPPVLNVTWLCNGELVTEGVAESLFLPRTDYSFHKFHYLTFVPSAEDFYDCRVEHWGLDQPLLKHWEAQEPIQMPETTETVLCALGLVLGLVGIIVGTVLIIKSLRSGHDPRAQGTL
T7 sequence (P04440 30-258 A65V/A84D/A85E): T6 sequence (P04440 30-258) with A36V, A55D, A56E
As to the kind of experiment: biochemical. In kind it is binding.

Test [8] has as its system lymphocytes obtained from HSV-1 infected H-2^d mice. Put plainly: HSV-primed T-cell responses to gD peptides in HSV-1 infected mice. Particulars: HSV-1 infected H-2^d mice. In kind it is cell-based. On the procedure:
Twelve days after the second immunization, spleen and inguinal lymph nodes (LN) were removed and placed into ice-cold serum free HL-1 medium supplemented with 15 mM HEPES, 5×10^−5 M β-mercaptoethanol, 2 mM glutamine, 50 U of penicillin and 50 μg of streptomycin (GIBCO-BRL, Grand Island, N.Y.) (complete medium, CM). The cells were cultured in 96-well plates at 5×10^5 cells/well in CM, with recall or control peptide at 30, 10, 3, 1, or 0.3 μg/ml concentration, as previously described in (BenMohamed et al., 2000 and 2002). The cell suspensions were incubated for 72 h at 37° C. in 5% CO2. One μCi (micro-curie) of (^3H)-thymidine (Dupont MEN, Boston, Mass.) was added to each well during the last 16 h of culture. The incorporated radioactivity was determined by harvesting cells onto glass fiber filters and counted on a Matrix 96 direct ionization-counter (Packard Instruments, Meriden, Conn.). Results were expressed as the mean cpm of cell-associated (^3H)-thymidine recovered from wells containing Ag minus the mean cpm of cell-associated (^3H)-thymidine recovered from wells without Ag (A cpm) (average of triplicate). The Stimulation Index (SI) was calculated as the mean cpm of cell-associated (^3H)-thymidine recovered from wells containing Ag divided by the mean cpm of cell-associated (^3H)-thymidine recovered from wells without Ag (average of triplicate). For all experiments the irrelevant control peptide gB141-165 and the T-cell mitogen Concanavalin A (ConA) (Sigma, St. Louis, Mo.) were used as negative and positive controls, respectively. Proliferation results were confirmed by repeating each experiment twice. A T-cell proliferative response was considered positive when A cpm>1000 and SI>2.
To define the fine specificity of broadly reactive T-cells associated with viral immunity and to explore immunodominance in the context of HSV infection, proliferation of lymphocytes obtained from twenty HSV-1 infected H-2^d mice were evaluated using the twelve gD peptides as Ag (FIG. 6). […] Despite a difference between individual mice, a unique array of T-cell responses was identified for each of the twenty infected mice analyzed.

Where a chain is given by its changes, count along the chain named. Read-outs that look alike come from different tables or passages of the source.

T5 sequence (Q30154 30-266, other chains not shown): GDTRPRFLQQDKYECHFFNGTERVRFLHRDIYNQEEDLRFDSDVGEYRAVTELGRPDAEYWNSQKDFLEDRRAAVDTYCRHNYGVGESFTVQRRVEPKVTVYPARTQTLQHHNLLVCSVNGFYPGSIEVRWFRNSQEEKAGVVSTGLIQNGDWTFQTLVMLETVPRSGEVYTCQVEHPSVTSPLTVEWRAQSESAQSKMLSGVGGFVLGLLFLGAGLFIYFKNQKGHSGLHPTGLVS

Turning to `CC[C@H](C)[C@H](NC(=O)[C@@H]1CCCN1C(=O)[C@H](CS)NC(=O)[C@H](C)NC(=O)CNC(=O)[C@H](CC(C)C)NC(=O)[C@H](CO)NC(=O)[C@H](CCCCN)NC(=O)[C@@H](N)CC(N)=O)C(=O)N[C@@H](CCCNC(=N)N)C(=O)N[C@H](C(=O)N[C@@H](CCC(N)=O)C(=O)N1CCC[C@H]1C(=O)N[C@@H](CCCNC(=N)N)C(=O)N[C@@H](Cc1c[nH]c2ccccc12)C(=O)N[C@@H](CC(N)=O)C(=O)N[C@@H](Cc1ccc(O)cc1)C(=O)N[C@@H](Cc1ccc(O)cc1)C(=O)N[C@@H](CC(=O)O)C(=O)N[C@@H](CO)C(=O)N[C@@H](Cc1ccccc1)C(=O)N[C@@H](CO)C(=O)N[C@@H](C)C(=O)N[C@H](C(=O)N[C@@H](CO)C(=O)N[C@@H](CCC(=O)O)C(=O)N[C@@H](CC(=O)O)C(=O)N[C@@H](CC(N)=O)C(=O)N[C@@H](CC(C)C)C(=O)NCC(=O)N[C@@H](Cc1ccccc1)C(=O)N[C@@H](CC(C)C)C(=O)O)C(C)C)[C@@H](C)O` [HSV 33], the IC50 turned out to be 0.006 µM in test [1] (Class II MHC allele DR4, read-out: IC50, DR4); 0.008 µM in test [1] (Table V, […], read-out: IC50 DR4); 0.019 µM in test [2]; 0.289 µM in test [3] (Class II MHC allele DR11, read-out: IC50, DR11); 0.289 µM in test [3] (Table V, […], read-out: IC50 DR11); 0.002 µM in test [4]. In addition, the 50% inhibitory concentration (IC50) in test [5] stood at 0.134 µM; in test [6] (Class II MHC allele DP401), 0.083 µM; in test [6] (Table V, […]), 0.083 µM; in test [7] (Class II MHC allele DP402), 0.065 µM; in test [7] (Table V, […]) it was 0.065 µM. Besides, the “immunodominance of epitopes in HSV-primed T-cell responses” value in test [8] is reported as “subdominant epitopes”.
